Where “and” joins values, the source holds several entries; their conditions need not be identical. Equal values may be shown once. Where a name gives a salt, the structure may show the parent alone. Read-outs that look alike come from different tables or passages of the source.
Test system: HT29 RAMS11 overexpressing cells
Assay: High-throughput viability assay (resazurin), 119 FDA-approved anticancer drugs, RAMS11 overexpressing cells (Clone1, Clone2)
Conditions: for increase in drug resistance in HT29 RAMS11 overexpressing cells: topoisomerase inhibitors, vs empty vector cells; for increase in cellular viability compared with empty vector control cell line: HT29 RAMS11 overexpressing vs empty vector cells, treated 72 h
[1] = OE1 (RAMS11 overexpression clone 1), 0.1 uM drug, 72 h, vs empty vector control
[2] = OE1 (RAMS11 overexpression clone 1), 1 uM drug, 72 h, vs empty vector control
[3] = OE1 (RAMS11 overexpression clone 1), 10 uM drug, 72 h, vs empty vector control
[4] = OE2 (RAMS11 overexpression clone 2), 0.1 uM drug, 72 h, vs empty vector control
[5] = OE2 (RAMS11 overexpression clone 2), 1 uM drug, 72 h, vs empty vector control
[6] = OE2 (RAMS11 overexpression clone 2), 10 uM drug, 72 h, vs empty vector control

Compound	Viability Fold Change [1]	Viability Fold Change [2]	Viability Fold Change [3]	Viability Fold Change [4]	Viability Fold Change [5]	Viability Fold Change [6]	Viability Fold Change	increase in drug resistance in HT29 RAMS11 overexpressing cells	increase in cellular viability compared with empty vector control cell line
CO[C@H]1C[C@@H]2CC[C@@H](C)[C@@](O)(O2)C(=O)C(=O)N2CCCC[C@H]2C(=O)O[C@H]([C@H](C)C[C@@H]2CC[C@@H](OC(=O)C(C)(CO)CO)[C@H](OC)C2)CC(=O)[C@H](C)/C=C(\C)[C@@H](O)[C@@H](OC)C(=O)[C@H](C)C[C@H](C)/C=C/C=C/C=C/1C [Temsirolimus]	0.7059	0.6733	0.6861	0.6816	0.7302	0.693	–	–	–
COc1cc([C@@H]2c3cc4c(cc3[C@@H](O[C@@H]3O[C@@H]5CO[C@@H](c6cccs6)O[C@H]5[C@H](O)[C@H]3O)[C@H]3COC(=O)[C@H]23)OCO4)cc(OC)c1O [Teniopside]	1.038	1.327	2.288	0.9657	1.349	2.261	–	–	–
O=C1CCC(N2C(=O)c3ccccc3C2=O)C(=O)N1 (stereo not shown) [Thalidomide]	0.9251	0.9878	0.9064	0.8995	1	1.074	–	–	–
Nc1nc2nc[nH]c2c(=S)[nH]1 [Thioguanine]	0.9423	0.9288	0.9702	0.8995	0.8724	1.01	–	–	–
S=P(N1CC1)(N1CC1)N1CC1 [Thiotepa]	–	–	–	–	–	–	0.7908 and 0.9826 and 0.9401 and 0.9694 and 0.9433 and 0.8817	–	–
CC[C@@]1(O)C(=O)OCc2c1cc1n(c2=O)Cc2cc3c(CN(C)C)c(O)ccc3nc2-1 [Topotecan HCL]	1.11	2.225	3.389	1.018	2.127	2.763	–	–	–
CC(=O)Nc1cccc(-n2c(=O)n(C3CC3)c(=O)c3c(Nc4ccc(I)cc4F)n(C)c(=O)c(C)c32)c1 [Trametinib]	1.35	1.732	1.975	1.213	1.641	1.886	–	–	–
CC1=C(/C=C/C(C)=C/C=C/C(C)=C/C(=O)O)C(C)(C)CCC1 [Tretinoin]	1.161	1.226	1.142	1.068	1.373	1.336	–	–	–
C1CN1c1nc(N2CC2)nc(N2CC2)n1 [Triethylenemelamine]	–	–	–	–	–	–	1.287 and 1.238 and 0.9974 and 1.295 and 1.284 and 1.013	–	–
Oc1ncc(N(CCCl)CCCl)c(O)n1 [Uracil mustard]	–	–	–	–	–	–	0.8306 and 1.02 and 0.9705 and 0.9647 and 1.048 and 0.932	–	–
CCCCC(=O)OCC(=O)[C@]1(O)Cc2c(O)c3c(c(O)c2[C@@H](O[C@H]2C[C@H](NC(=O)C(F)(F)F)[C@H](O)[C@H](C)O2)C1)C(=O)c1c(OC)cccc1C3=O [Valrubicin]	0.9645	1.163	1.863	0.9166	1.213	1.792	–	–	–
COc1cc2c(Nc3ccc(Br)cc3F)ncnc2cc1OCC1CCN(C)CC1 [Vandetanib]	0.9025	0.8127	1.181	0.971	0.9162	1.142	–	–	–
CCCS(=O)(=O)Nc1ccc(F)c(C(=O)c2c[nH]c3ncc(-c4ccc(Cl)cc4)cc23)c1F [Vemurafenib]	0.6921	0.4381	0.569	0.762	0.5468	0.6144	–	–	–
CC[C@]1(O)C[C@@H]2CN(CCc3c([nH]c4ccccc34)[C@@](C(=O)OC)(c3cc4c(cc3OC)N(C)[C@H]3[C@@](O)(C(=O)OC)[C@H](OC(C)=O)[C@]5(CC)C=CCN6CC[C@]43[C@@H]65)C2)C1 [Vinblastine sulfate]	3.198	3.402	3.682	2.825	3.412	3.815	–	–	–
CCC1=C[C@@H]2CN(C1)Cc1c([nH]c3ccccc13)[C@@](C(=O)OC)(c1cc3c(cc1OC)N(C)[C@H]1[C@@](O)(C(=O)OC)[C@H](OC(C)=O)[C@]4(CC)C=CCN5CC[C@]31[C@@H]54)C2 [Vinorelbine tartrate]	0.9568	1.194	2.913	0.9481	1.067	2.913	–	–	–
CS(=O)(=O)c1ccc(C(=O)Nc2ccc(Cl)c(-c3ccccn3)c2)c(Cl)c1 [Vismodegib]	0.8416	0.9134	0.9421	0.9752	0.846	0.8976	–	–	–
O=C(CCCCCCC(=O)Nc1ccccc1)NO [Vorinostat]	1.123	0.8948	1.604	1.068	1.159	1.356	–	–	–
O=P(O)(O)C(O)(Cn1ccnc1)P(=O)(O)O [Zoledronic acid]	0.9494	0.9911	1.01	0.9595	1.055	1.082	–	–	–
COc1cccc2c1C(=O)c1c(O)c3c(c(O)c1C2=O)C[C@@](O)(C(C)=O)C[C@@H]3O[C@H]1C[C@H](N)[C@H](O)[C@H](C)O1 [daunorubicin HCl, reference compound]	1.103	2.258	3.761	1.084	2.098	3.726	–	at least a two-fold increase in drug resistance	–
O=c1[nH]c(=O)n([C@H]2C[C@H](O)[C@@H](CO)O2)cc1F [floxuridine, reference compound]	1.541	2.291	2.964	1.569	2.375	3.091	–	–	greatest resistance
Nc1ccn([C@@H]2O[C@H](CO)[C@@H](O)C2(F)F)c(=O)n1 [gemcitabine, reference compound]	–	3.429	2.39	1.507	3.028	2.499	–	–	greatest resistance
CC(=O)[C@]1(O)Cc2c(O)c3c(c(O)c2[C@@H](O[C@H]2C[C@H](N)[C@H](O)[C@H](C)O2)C1)C(=O)c1ccccc1C3=O [idarubicin HCl, reference compound]	–	–	–	–	–	–	–	at least a two-fold increase in drug resistance	–
CC[C@@]1(O)C(=O)OCc2c1cc1n(c2=O)Cc2cc3c(CN(C)C)c(O)ccc3nc2-1 [topotecan hydrochloride, reference compound]	–	–	–	–	–	–	–	at least a two-fold increase in drug resistance	–
Arsenic trioxide	0.9683	0.9697	0.8821	1.015	–	1.115	–	–	–
Bleomycin	0.921	1.039	1.025	0.96	–	–	–	–	–
Dabrafenib mesylate	0.7923	0.8383	0.912	0.7733	0.8008	0.913	–	–	–

— US12024707B2, “Methods and compositions for modulating lncRNAs and methods of treatment based on lncRNA expression” (Washington University, priority 2020, dated 2024)
